Experimental data taken from patent US20240025884A1 (Dong-A ST Co., Ltd., priority 2022, published 2024).

Molecular target: GCN2 (Homo sapiens (Human), UniProt Q9P2K8)
Test: GCN2 Biochemical Assay (TR-FRET, GFP-eIF2S1 substrate phosphorylation)
Settings: read-out: IC50 (GCN2 Inhibitory Activity)
How it was run: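 In-house GCN2 (1.6 nM 2× stock) phosphorylates GFP-eIF2S1 (50 nM 2× stock) with ATP (0.2 mM 2× stock) and tRNA, pH 7.5, 70 min at room temperature; 10-point 3.16-fold compound series. TR-FRET detection with Tb-anti-phospho antibody, 2–3 h, Ex 340/Em 490/520 nm; artifact plate spiked with phospho-substrate.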

Sequence of GCN2 (Q9P2K8 whole entry): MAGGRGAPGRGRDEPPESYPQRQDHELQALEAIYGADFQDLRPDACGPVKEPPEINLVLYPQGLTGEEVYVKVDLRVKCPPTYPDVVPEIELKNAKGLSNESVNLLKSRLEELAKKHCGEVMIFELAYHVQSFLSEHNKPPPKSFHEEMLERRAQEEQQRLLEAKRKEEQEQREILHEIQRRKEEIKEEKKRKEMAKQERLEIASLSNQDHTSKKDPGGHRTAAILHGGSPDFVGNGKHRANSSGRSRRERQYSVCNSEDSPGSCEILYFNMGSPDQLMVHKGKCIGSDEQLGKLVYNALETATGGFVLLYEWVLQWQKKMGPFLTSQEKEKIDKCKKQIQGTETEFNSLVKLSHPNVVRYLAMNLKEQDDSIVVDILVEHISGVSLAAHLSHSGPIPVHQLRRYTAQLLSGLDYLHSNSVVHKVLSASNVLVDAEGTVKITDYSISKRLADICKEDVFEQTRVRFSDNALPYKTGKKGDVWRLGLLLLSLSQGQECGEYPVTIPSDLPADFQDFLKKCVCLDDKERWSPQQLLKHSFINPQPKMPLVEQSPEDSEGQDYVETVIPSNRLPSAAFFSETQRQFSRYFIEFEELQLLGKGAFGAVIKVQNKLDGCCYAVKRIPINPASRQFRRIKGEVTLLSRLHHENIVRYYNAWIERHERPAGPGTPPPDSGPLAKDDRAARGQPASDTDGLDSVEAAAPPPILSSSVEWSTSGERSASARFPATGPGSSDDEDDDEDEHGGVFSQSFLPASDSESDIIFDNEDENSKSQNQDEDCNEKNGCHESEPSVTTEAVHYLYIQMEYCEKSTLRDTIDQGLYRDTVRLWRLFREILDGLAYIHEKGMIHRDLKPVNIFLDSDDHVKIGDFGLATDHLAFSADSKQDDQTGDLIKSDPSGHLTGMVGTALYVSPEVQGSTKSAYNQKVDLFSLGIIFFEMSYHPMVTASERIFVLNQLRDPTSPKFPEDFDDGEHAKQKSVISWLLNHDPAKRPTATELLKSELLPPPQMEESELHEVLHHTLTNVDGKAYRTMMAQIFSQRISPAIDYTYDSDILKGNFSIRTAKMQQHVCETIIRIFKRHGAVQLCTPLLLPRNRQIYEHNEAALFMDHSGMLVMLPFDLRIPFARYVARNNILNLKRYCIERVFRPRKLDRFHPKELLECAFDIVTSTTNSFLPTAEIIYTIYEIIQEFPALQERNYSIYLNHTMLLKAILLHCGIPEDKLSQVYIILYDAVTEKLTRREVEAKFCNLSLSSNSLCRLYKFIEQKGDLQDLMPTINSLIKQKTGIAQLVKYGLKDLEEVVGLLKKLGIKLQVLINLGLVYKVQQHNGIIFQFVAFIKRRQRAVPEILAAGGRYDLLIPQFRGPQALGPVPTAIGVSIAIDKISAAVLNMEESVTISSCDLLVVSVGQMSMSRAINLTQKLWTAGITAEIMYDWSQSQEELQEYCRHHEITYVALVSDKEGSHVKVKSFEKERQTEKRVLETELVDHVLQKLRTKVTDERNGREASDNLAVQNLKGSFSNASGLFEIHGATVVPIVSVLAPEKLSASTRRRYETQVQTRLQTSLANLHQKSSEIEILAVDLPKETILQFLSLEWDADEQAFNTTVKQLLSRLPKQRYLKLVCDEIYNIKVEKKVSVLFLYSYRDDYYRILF

Row | SMILES | IC50
1 | Cc1cnc(Nc2cc(C)n(C)n2)nc1-c1c[nH]c2c(N3Cc4c(cccc4-c4ccncc4F)C3=O)cccc12 [Example 400, 2-(3-(2-((1,5-dimethyl-1H-pyrazol-3-yl)amino)-5-methylpyrimidin-4-yl)-1H-indol-7-yl)-4-(3-fluoropyridin-4-yl)isoindolin-1-one] | < 10 nM
2 | Cc1cnc(Nc2cc(C)n(C)n2)nc1-c1c[nH]c2c(N3Cc4c(cccc4-c4ccc(O)nc4)C3=O)cccc12 [Example 401, 2-(3-(2-((1,5-dimethyl-1H-pyrazol-3-yl)amino)-5-methylpyrimidin-4-yl)-1H-indol-7-yl)-4-(6-hydroxypyridin-3-yl)isoindolin-1-one] | < 10 nM
3 | Cc1cnc(Nc2cc(C)n(C)n2)nc1-c1c[nH]c2c(N3Cc4c(cccc4-c4ccnc(Cl)c4)C3=O)cccc12 [Example 402, 4-(2-chloropyridin-4-yl)-2-(3-(2-((1,5-dimethyl-1H-pyrazol-3-yl)amino)-5-methylpyrimidin-4-yl)-1H-indol-7-yl)isoindolin-1-one] | 10 to 100 nM
4 | COc1cc(-c2cccc3c2CN(c2cccc4c(-c5nc(Nc6cc(C)n(C)n6)ncc5C)c[nH]c24)C3=O)c(F)cn1 [Example 403, 2-(3-(2-((1,5-dimethyl-1H-pyrazol-3-yl)amino)-5-methylpyrimidin-4-yl)-1H-indol-7-yl)-4-(5-fluoro-2-methoxypyridin-4-yl)isoindolin-1-one] | 10 to 100 nM
5 | Cc1cnc(Nc2cc(C)n(C)n2)nc1-c1c[nH]c2c(N3Cc4c(cccc4-c4ccnc(F)c4)C3=O)cccc12 [Example 404, 2-(3-(2-((1,5-dimethyl-1H-pyrazol-3-yl)amino)-5-methylpyrimidin-4-yl)-1H-indol-7-yl)-4-(2-fluoropyridin-4-yl)isoindolin-1-one] | < 10 nM
6 | Cc1cnc(Nc2cc(C)n(C)n2)nc1-c1c[nH]c2c(N3Cc4c(cccc4-c4ccc(Cl)nc4)C3=O)cccc12 [Example 405, 4-(6-chloropyridin-3-yl)-2-(3-(2-((1,5-dimethyl-1H-pyrazol-3-yl)amino)-5-methylpyrimidin-4-yl)-1H-indol-7-yl)isoindolin-1-one] | 10 to 100 nM
7 | COc1ccc(-c2cccc3c2CN(c2cccc4c(-c5nc(Nc6cc(C)n(C)n6)ncc5C)c[nH]c24)C3=O)cn1 [Example 406, 2-(3-(2-((1,5-dimethyl-1H-pyrazol-3-yl)amino)-5-methylpyrimidin-4-yl)-1H-indol-7-yl)-4-(6-methoxypyridin-3-yl)isoindolin-1-one] | 10 to 100 nM
8 | Cc1cc(-c2cccc3c2CN(c2cccc4c(-c5nc(Nc6cc(C)n(C)n6)ncc5C)c[nH]c24)C3=O)cnc1F [Example 407, 2-(3-(2-((1,5-dimethyl-1H-pyrazol-3-yl)amino)-5-methylpyrimidin-4-yl)-1H-indol-7-yl)-4-(6-fluoro-5-methylpyridin-3-yl)isoindolin-1-one] | 10 to 100 nM
9 | Cc1cnc(Nc2cc(C)n(C)n2)nc1-c1c[nH]c2c(N3Cc4c(cccc4-c4ccnc(N5CCNCC5)c4)C3=O)cccc12 [Example 408, 2-(3-(2-((1,5-dimethyl-1H-pyrazol-3-yl)amino)-5-methylpyrimidin-4-yl)-1H-indol-7-yl)-4-(2-(piperazin-1-yl)pyridin-4-yl)isoindolin-1-one] | < 10 nM
10 | Cc1cnc(Nc2cc(C)n(C)n2)nc1-c1c[nH]c2c(N3Cc4c(cccc4-c4ccc(S(=O)(=O)N5CCCC5)cc4)C3=O)cccc12 [Example 409, 2-(3-(2-((1,5-dimethyl-1H-pyrazol-3-yl)amino)-5-methylpyrimidin-4-yl)-1H-indol-7-yl)-4-(4-(pyrrolidin-1-ylsulfonyl)phenyl)isoindolin-1-one] | 10 to 100 nM
11 | Cc1cnc(Nc2cc(C)n(C)n2)nc1-c1c[nH]c2c(N3Cc4c(/C=C/c5cccc(F)c5)cccc4C3=O)cccc12 [Example 410, (E)-2-(3-(2-((1,5-dimethyl-1H-pyrazol-3-yl)amino)-5-methylpyrimidin-4-yl)-1H-indol-7-yl)-4-(3-fluorostyryl)isoindolin-1-one] | 100 to 1000 nM
